Test results: patent publication US20230382858A1 (Beckley Psytech Limited, priority 2020, published 2023)

Legend:
[1] = target: hERG (Homo sapiens, UniProt Q12809); assay: in vitro
Excerpt: This assay is employed as a screen to assess potential risks for QT interval prolongation.

[2] = test system: Sprague-Dawley rats; assay: Maximum tolerated dose followed by 7-day repeat-dose toxicology in rats (Study 700040); type: in vivo; conditions: rat
Procedure: The study consisted of 2 parts. […] The doses used in part 1 were 15, 30, 50, 65, and 75 mg/kg. Each subsequent dose was administered following at least 24 hours from the commencement of the previous dose. There were 2 males and 2 females in each dose group.
During Phase I, assessments of mortality, clinical signs and body weights were performed. […] The necropsy consisted of an external examination, including reference to all clinically-recorded lesions, as well as a detailed internal examination.
During Phase 2, assessments of mortality, clinical signs and body weights were performed. Following dosing, all animals were euthanized and subjected to a necropsy examination on Day 8. The necropsy consisted of an external examination, including reference to all clinically-recorded lesions, as well as a detailed internal examination. Study plan specific tissues/organs were collected and retained, then trimmed and preserved promptly once the animal was euthanized but these were not further examined microscopically.

[3] = test system: Chinese hamster ovary (CHO)-K1 cells; assay: In vitro micronucleus test (flow cytometry); type: cell-based
Excerpt: The treatment with the vehicle/negative and positive controls was concurrently performed.

[4] = test system: Salmonella typhimurium tester strains TA98, TA100, TA1535, and TA1537; assay: Bacterial Reverse Mutation Test (Ames test), S. typhimurium; conditions: for cytotoxicity: 5000 μg/plate
[5] = Dynamic Vapour Sorption (DVS); type: physicochemical
Procedure: Sorption isotherms were obtained using a Hiden Isochema moisture sorption analyser (IGAsorp Systems Firmware V20.19.005 COM3) and operated by Isochema Hlsorp 2019 V4.02.0102. The sample was maintained at a constant temperature (25° C.) by the instrument controls. The humidity was controlled by mixing streams of dry and wet nitrogen, with a total flow of 250 ml.min-1. The weight change of the sample was monitored as a function of humidity by a microbalance (accuracy +/− 0.001 mg).
A defined amount of sample was placed in a tared mesh stainless steel basket under ambient conditions. A typical experimental run consisted of three cycles (desorption, sorption, desorption, sorption, desorption and sorption) at a constant temperature (25° C.) and 10% RH intervals over a 0-90% RH range (60 minutes for each humidity level).
This is to obtain in-depth profiling of the material towards humidity at these elevated levels.

[6] = intranasal 75 mg/kg for 7 consecutive days

Sequence of hERG (Q12809 whole entry): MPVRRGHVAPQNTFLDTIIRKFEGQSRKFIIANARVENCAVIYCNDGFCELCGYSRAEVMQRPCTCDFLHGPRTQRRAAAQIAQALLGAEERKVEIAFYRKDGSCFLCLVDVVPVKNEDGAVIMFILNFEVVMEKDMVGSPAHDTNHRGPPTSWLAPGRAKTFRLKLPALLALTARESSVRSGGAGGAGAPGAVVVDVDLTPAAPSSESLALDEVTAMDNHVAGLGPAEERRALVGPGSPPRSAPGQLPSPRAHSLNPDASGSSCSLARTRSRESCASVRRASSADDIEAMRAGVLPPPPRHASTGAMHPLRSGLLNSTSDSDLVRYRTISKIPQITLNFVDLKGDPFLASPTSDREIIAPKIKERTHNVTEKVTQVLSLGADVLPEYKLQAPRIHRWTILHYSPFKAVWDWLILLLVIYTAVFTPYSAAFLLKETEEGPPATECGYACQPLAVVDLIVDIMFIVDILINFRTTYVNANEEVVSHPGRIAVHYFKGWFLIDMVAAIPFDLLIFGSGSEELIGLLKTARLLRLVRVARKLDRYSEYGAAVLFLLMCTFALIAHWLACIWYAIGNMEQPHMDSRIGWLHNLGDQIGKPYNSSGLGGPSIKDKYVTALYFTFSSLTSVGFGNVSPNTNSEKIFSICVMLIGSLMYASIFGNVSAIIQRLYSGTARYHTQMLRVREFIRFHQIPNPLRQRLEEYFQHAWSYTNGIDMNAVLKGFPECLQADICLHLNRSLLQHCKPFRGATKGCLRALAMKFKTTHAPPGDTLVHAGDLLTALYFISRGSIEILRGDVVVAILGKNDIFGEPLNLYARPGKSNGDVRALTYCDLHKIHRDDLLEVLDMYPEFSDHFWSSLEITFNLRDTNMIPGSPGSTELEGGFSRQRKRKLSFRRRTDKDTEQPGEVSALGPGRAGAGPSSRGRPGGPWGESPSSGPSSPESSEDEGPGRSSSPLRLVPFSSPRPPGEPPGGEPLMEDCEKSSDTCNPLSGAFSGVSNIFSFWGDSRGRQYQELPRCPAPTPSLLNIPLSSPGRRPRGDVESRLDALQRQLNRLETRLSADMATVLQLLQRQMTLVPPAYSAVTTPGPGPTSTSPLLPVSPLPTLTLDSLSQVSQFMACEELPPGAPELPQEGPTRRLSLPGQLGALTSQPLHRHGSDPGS

COc1ccc2[nH]cc(CCN(C)C)c2c1 [5MeODMT, 5-methoxy-N,N-dimethyltryptamine]
inhibition at 30 µM [1]: 77.8 ± 7.4% | body weight gain [2, 6]: slightly suppressed for both sexes | macroscopic observation: dark/pale area of the lungs [2, 6]: 2/10 | mortality [2, 6]: no mortalities | tolerability [2, 6]: tolerated | clinical signs ([2]; single intranasal 15-75 mg/kg): incoordination, shallow or increased respiration, sneezing, salivation, decreased activity, piloerection, white pasty material around penis (for males), ptosis, laying on the cage floor, and sensitive to touch and shaking | mortality and gross pathology ([2]; single intranasal 15-75 mg/kg): no mortality and gross pathology findings at any dose | time to resolution of most clinical signs post dose ([2]; single intranasal 15-75 mg/kg): ≤ 1 h | tolerability ([2]; single intranasal, dose levels up to 75 mg/kg): tolerated | body weight gain ([2]; single intranasal, females at 75 mg/kg): slightly suppressed | chromosome-damaging potential (conclusion) ([3]; CHO-K1 cells): no chromosome-damaging potential | cytotoxicity or precipitation ([3]; up to 300 μg/mL, all treatment periods): No cytotoxicity or precipitation | cytotoxicity ([4]; absence of S9 mix): higher levels of cytotoxicity | cytotoxicity ([4]; presence of S9 mix): remained slight | revertant colonies in repeated test ([4]; TA1537 and TA98, absence of S9 mix, 15-2000 μg per plate): no increases in the revertant colonies number per plate | mutagenic potential (conclusion) ([4]; all bacteria strains tested, absence or presence of S9): no mutagenic potential

COc1ccc2[nH]cc(CCN(C)C)c2c1.Cl [5MeODMT Hydrochloride, lot 20/45/006-FP, 5MeODMT Hydrochloride]
moisture increase ([5]; 70-75% RH): ca. 0.46 % w/w | further moisture uptake ([5]; 75-80% RH): ca. 7% | further moisture uptake ([5]; 80-85%): ca. 40% | stability towards humidity ([5]; DVS): robustness between 0-75% RH | state of solids post DVS analysis ([5]; modified DVS up to 85% RH, likely occurred above 80% RH): Complete deliquescence

COc1ccc2[nH]cc(CCN(C)C)c2c1.Cl [5MeODMT Hydrochloride, lot 20/20/126-FP, 5MeODMT Hydrochloride]
state of material upon completion of the DVS cycle ([5]; 0-90% RH cycles): completed deliquesced | moisture uptake ([5]; 25° C., 0-70% RH): less than 0.3 % w/w | moisture uptake ([5]; 25° C., first sorption cycle, 70-80% RH): Approximately 23 w/w | mass above the minimum recorded at 0% RH after subsequent cycles (retention of moisture) ([5]; 25° C., subsequent sorption and desorption cycles): 6-9 % w/w | further moisture uptake ([5]; 25° C., up to and when held at 90% RH): 20 % w/w
